Experimental data from patent US10568828B2, “Peptide having hair growth-promoting activity and use thereof” (CAREGEN CO., LTD., priority 2016, dated 2020).
Ends that are not written are not given here.

Assays:
Assay type in all cases: cell-based
ERK = experiment: p-ERK Western blot; conditions: human hair follicle dermal papilla cells, 15 and 30 minutes
Procedure: (§1) Human hair follicle dermal papilla cells were seeded at a density of 4×10^5 cells/well on 6-well plates, followed by incubation overnight. After changing into serum-free medium, the cells were treated with the peptides, followed by incubation for 15 and 30 minutes, and then the wells were harvested to prepare cell lysates. Western blotting was performed using PI3K antibodies (Santa Cruz Biotechnology, USA) and phospho-ERK antibody (Cell Signaling Technology, USA) to compare protein expression patterns.

Bax = Bax Western blot; conditions: human hair follicle dermal papilla cells, 24 hours
Procedure: as §1, with “plate,” for “plates,”, “24 hours,” for “15 and 30 minutes,”, “Bcl-2 and Bax” for “PI3K”, “Biotechnology,” for “Biotechnology, USA) and phospho-ERK antibody (Cell Signaling Technology,”

TGF-β1 = TGF-β1 RT-PCR; conditions: human hair follicle dermal papilla cells, 24 hours
Procedure: (§2) Human hair follicle dermal papilla cells were seeded at a density of 4×10^5 cells/well on 6-well plates, followed by incubation overnight. After changing into serum-free medium, the cells were treated with the peptides, followed by incubation for 24 hours, and then the wells were harvested to separate RNA. After RNA quantification, cDNA synthesis was conducted using the cDNA synthesis kit (Intron, Korea), followed by PCR using PCR premix (Intron, Korea) and TGF-β1 primers, and then electrophoresis was performed on 5% agarose gel to compare the mRNA expression levels for each sample treatment conditions.

KGF = KGF RT-PCR; conditions: human hair follicle dermal papilla cells, 24 hours
Procedure: as §2, with “isolate” for “separate”, “respective KGF, bFGF, and VEGF” for “TGF-β1”, “levels of the growth factors” for “levels”

PI3K = PI3K Western blot; conditions: human hair follicle dermal papilla cells, 15 and 30 minutes
Procedure: as §1

Bcl-2 = Bcl-2 Western blot; conditions: human hair follicle dermal papilla cells, 24 hours
Procedure: as §1, with “plate,” for “plates,”, “24 hours,” for “15 and 30 minutes,”, “Bcl-2 and Bax” for “PI3K”, “Biotechnology,” for “Biotechnology, USA) and phospho-ERK antibody (Cell Signaling Technology,”

β-catenin = experiment: β-Catenin activation test (Western blot of nuclear protein); conditions: human hair follicle dermal papilla cells, 15 and 30 minutes, Western blot of nuclei
Procedure: as §1, with “isolate nuclear and cytoplasmic proteins.” for “prepare cell lysates.”, “β-catenin” for “PI3K antibodies”, “USA)” for “USA) and phospho-ERK antibody (Cell Signaling Technology, USA)”, “β-catenin” for “protein”, “patterns in nuclei.” for “patterns.”

keratin-14 = experiment: Keratin-14 RT-PCR; conditions: human hair follicle dermal papilla cells, 24 hours
Procedure: as §2, with “5×10^5” for “4×10^5”, “isolate” for “separate”, “keratin” for “TGF-β1”, “respective” for “each”

bFGF = bFGF RT-PCR; conditions: human hair follicle dermal papilla cells, 24 hours
Procedure: as §2, with “isolate” for “separate”, “respective KGF, bFGF, and VEGF” for “TGF-β1”, “levels of the growth factors” for “levels”

[1] = tested on: Human hair follicle dermal papilla cells; experiment: DPC proliferation assay (MTT); conditions: serum-free medium, 3 days incubation, absorbance 550 nm
Procedure: Human hair follicle dermal papilla cells were seeded at a density of 2×10^3 cells/well on 96-well plates, followed by incubation overnight. After changing into serum-free medium, the cells were treated with the peptides, followed by incubation for 3 days, and then the wells were treated with 4 mg/ml MTT solution, followed by reaction for 4 hours. The resulting formazan was solubilized with DNSO, and then the absorbance was measured at 550 nm using a microplate reader.

VEGF = VEGF RT-PCR; conditions: human hair follicle dermal papilla cells, 24 hours
Procedure: as §2, with “isolate” for “separate”, “respective KGF, bFGF, and VEGF” for “TGF-β1”, “levels of the growth factors” for “levels”

MSX2 = MSX2 RT-PCR; conditions: human hair follicle dermal papilla cells, 24 hours
Procedure: as §2, with “isolate” for “separate”, “MSX2” for “TGF-β1”

Substance	ERK phosphorylation (ERK)	expression of the apoptosis-related protein Bax (Bax)	mRNA expression of TGF-β1 (TGF-β1)	mRNA expression of KGF (KGF)	PI3K expression (PI3K)	expression of the apoptosis inhibiting protein Bcl-2 (Bcl-2)	nuclear translocation due to the increase in activity of β-catenin (β-catenin)	mRNA expression of keratin-14 (keratin-14)	mRNA expression of bFGF (bFGF)	growth of human hair follicle dermal papilla cells [1]	mRNA expression of VEGF (VEGF)	mRNA expression of MSX2 (MSX2)
Arg-Arg-Lys-Ile (RRKI) [SEQ ID NO: 1]	increase	decrease	inhibited	increased	increase	increase	stimulated	increased	increased	stimulated in a dose-dependent manner	–	–
Ile-Tyr-Phe-Tyr (IYFY) [SEQ ID NO: 2]	increase	–	inhibited	–	increase	–	stimulated	–	–	stimulated in a dose-dependent manner	increased	stimulated
KKFIQQVYLAI [SEQ ID NO: 3]	increase	decrease	–	–	increase	increase	stimulated	–	increased	stimulated in a dose-dependent manner	increased	stimulated
